Read-outs that look alike come from different tables or passages of the source.
How the values were obtained:
human AChE [1] = molecular target: T1, human AChE (Homo sapiens, UniProt P22303); assay: biochemical; format: biochemical
Procedure: (§1) ATCh was used as a substrate for AChE and PTCh as a substrate for BChE. The reaction mixture contained DTNB (final concentration 0.3 mM), buffer, enzyme suspension, inhibitor (0.5–10 mM) and ATCh or PTCh (0.025–1.0 mM). Inhibition of enzymes was determined by measuring the decrease in enzyme activity in the presence of inhibitors.
(§2) The dissociation constant for an enzyme–inhibitor complex K(I) was evaluated from the impact of substrate concentrations [S] on the degree of inhibition applying the Hunter–Downs equation[17]^,[39]: Ki,app=vi/v0-vi·[I]=K(I)+K(I)/K(S)·[S] where Ki,app is an apparent enzyme-reversible inhibitor complex dissociation constant obtained at a given substrate concentration [S] in the presence of inhibitor concentration [I] and calculated from the enzyme activities v0 and vi measured without inhibitor and in the presence of inhibitor concentration [I], respectively. K(I) is the enzyme-reversible inhibitor complex dissociation constant and can stand for a complex formed at the catalytic site or for a complex formed at the peripheral site of the enzyme. K(S) is the enzyme-substrate dissociation constant that could be approximated to the Michaelis constant or to the enzyme-substrate dissociation constant when two molecules of the substrate are bound to the enzyme.

usual BChE [2] = molecular target: T2, usual BChE (Homo sapiens, UniProt P06276); assay: biochemical; format: biochemical; settings: for inhibition potency higher than other compounds of the same group: usual BChE, versus other resorcinol-, catechol- or saligenin-based compounds
T2 construct: Human native serum was used as a source of BChE; from tissue; host or cells: human serum (donor, IMROH Zagreb)
Procedure: as §1, §2

atypical BChE [3] = molecular target: T3, atypical BChE (Homo sapiens, UniProt P06276, D98G); assay: Reversible inhibition of atypical BChE (Ellman method, Hunter–Downs evaluation); format: biochemical
T3 construct: Human native serum was used as a source of BChE; from tissue; host or cells: human serum
Procedure: as §1, §2

fluoride-resistant BChE [4] = molecular target: T4, fluoride-resistant BChE (Homo sapiens, UniProt P06276); settings: substrate PTCh, K(I) ± SE
Procedure: as §1, §2

β-adrenoceptor = settings: more potent than (S)-enantiomer; cited from earlier work
human AChE [5] = molecular target: T1, human AChE; settings: K(I) ± SE; cited from earlier work
usual BChE [6] = molecular target: T2, usual BChE; settings: K(I) ± SE, cited from earlier work
atypical BChE [7] = molecular target: T3, atypical BChE; settings: K(I) ± SE; cited from earlier work
fluoride-resistant BChE [8] = molecular target: T4, fluoride-resistant BChE; settings: K(I) ± SE; cited from earlier work
[9] = enantiomers, substrate ATCh, pH 7.4, 25 °C, K(I) ± SE, read-out: K(I)
[10] = enantiomers, substrate PTCh, pH 7.4, 25 °C, K(I) ± SE, read-out: K(I)
[11] = racemate, 0.1 M phosphate buffer pH 7.4, 25 °C

T2 sequence (P06276 29-602): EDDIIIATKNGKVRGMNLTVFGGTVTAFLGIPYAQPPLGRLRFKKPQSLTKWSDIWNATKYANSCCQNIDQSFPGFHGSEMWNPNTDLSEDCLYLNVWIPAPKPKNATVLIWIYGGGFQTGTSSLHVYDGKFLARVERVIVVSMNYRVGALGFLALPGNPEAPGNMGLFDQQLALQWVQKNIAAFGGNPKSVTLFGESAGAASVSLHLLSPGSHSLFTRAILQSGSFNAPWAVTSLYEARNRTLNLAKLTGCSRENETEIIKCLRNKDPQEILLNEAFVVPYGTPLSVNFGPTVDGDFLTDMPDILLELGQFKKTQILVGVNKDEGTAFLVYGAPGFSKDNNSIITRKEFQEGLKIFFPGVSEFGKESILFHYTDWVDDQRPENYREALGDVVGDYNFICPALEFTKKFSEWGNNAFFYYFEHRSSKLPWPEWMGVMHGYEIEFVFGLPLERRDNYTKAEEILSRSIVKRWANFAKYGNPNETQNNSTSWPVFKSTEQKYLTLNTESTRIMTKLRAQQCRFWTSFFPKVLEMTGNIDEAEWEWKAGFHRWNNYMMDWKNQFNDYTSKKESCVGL
T4 sequence (P06276 29-602, change not shown): as the sequence (P06276 29-602) above
T3 sequence (P06276 29-602 D98G): as the sequence (P06276 29-602) above, with D70G counted along it
T1 sequence (P22303 32-614): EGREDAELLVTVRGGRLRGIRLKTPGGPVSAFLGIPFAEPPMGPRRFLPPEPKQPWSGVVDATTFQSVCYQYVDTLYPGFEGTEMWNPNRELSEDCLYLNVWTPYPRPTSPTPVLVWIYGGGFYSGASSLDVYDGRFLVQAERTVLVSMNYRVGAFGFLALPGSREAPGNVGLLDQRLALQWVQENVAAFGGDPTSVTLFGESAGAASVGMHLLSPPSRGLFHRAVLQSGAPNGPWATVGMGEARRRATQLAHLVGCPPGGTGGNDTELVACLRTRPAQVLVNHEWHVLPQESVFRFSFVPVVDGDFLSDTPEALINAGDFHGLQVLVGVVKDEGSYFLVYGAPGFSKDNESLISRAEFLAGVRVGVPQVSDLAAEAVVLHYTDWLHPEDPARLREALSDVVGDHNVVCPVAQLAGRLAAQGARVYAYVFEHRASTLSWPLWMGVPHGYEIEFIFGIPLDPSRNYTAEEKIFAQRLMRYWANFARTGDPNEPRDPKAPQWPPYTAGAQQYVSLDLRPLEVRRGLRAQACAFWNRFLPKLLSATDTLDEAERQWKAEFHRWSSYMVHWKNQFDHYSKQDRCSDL

(R)-epinephrine
Ki (human AChE [1]; [9]): 3200 ± 400 µM
Ki (usual BChE [2]; [10]): 4700 ± 1800 µM
Ki (atypical BChE [3]; [10]): 12000 ± 2000 µM

CC(C)(C)NC[C@H](O)c1ccc(O)c(CO)c1 [(R)-salbutamol]
Ki (human AChE [1]; [9]): 4000 ± 300 µM
Ki (usual BChE [2]; [10]): 190 ± 40 µM
Ki (atypical BChE [3]; [10]): 2300 ± 200 µM
Ki (fluoride-resistant BChE [4]; enantiomers, pH 7.4, 25 °C): 300 ± 60 µM
potency as β-adrenoceptor agonist relative to (S)-enantiomer (β-adrenoceptor): approximately 80 times

CC(C)(C)NCC(O)c1ccc(O)c(CO)c1 (centres unmarked) [Salbutamol]
Ki (human AChE [1]): 2000 ± 200 µM
higher inhibition potency (human AChE [1]; AChE, compared to terbutaline): two times
Ki (usual BChE [2]): 71 ± 6 µM
selectivity: inhibition of usual BChE more potent than AChE (ratio of K(I) constants) (usual BChE [2]): 28 times
Ki (atypical BChE [3]): 1400 ± 200 µM
Ki (fluoride-resistant BChE [4]; [11]): 190 ± 20 µM

CC(C)NCC(O)c1ccc(O)c(O)c1 (centres unmarked) [Isoproterenol]
increase in inhibition potency (human AChE [1]; AChE, compared to epinephrine): 2 fold
Ki (human AChE [5]): 2500 ± 1000 µM
Ki (usual BChE [6]; read-out: K(I)): 470 ± 210 µM
Ki (atypical BChE [7]): 1600 ± 300 µM
Ki (fluoride-resistant BChE [8]): 990 ± 120 µM

OCc1cc(C(O)CNCCCCCCOCCCCc2ccccc2)ccc1O (centres unmarked) [Salmeterol]
Ki (human AChE [1]): 30 ± 2 µM
increase in inhibition potency (human AChE [1]; AChE, salmeterol versus salbutamol): 67 fold
Ki (usual BChE [2]): 13 ± 1 µM
selectivity: inhibition of usual BChE more potent than AChE (ratio of K(I) constants) (usual BChE [2]): two times
inhibition potency higher than other compounds of the same group (usual BChE [2]): ≤ 5.5 times
Ki (atypical BChE [3]): 86 ± 18 µM
Ki (fluoride-resistant BChE [4]; [11]): 9.8 ± 2.3 µM

CC(C)(C)NCC(O)c1cc(O)cc(O)c1 (centres unmarked) [Terbutaline]
Ki (human AChE [1]; read-out: K(I)): 4800 ± 200 µM
selectivity: inhibition of usual BChE more potent than AChE (ratio of K(I) constants) (usual BChE [2]): 27 times
Ki (usual BChE [6]): 180 ± 150 µM
Ki (atypical BChE [7]): 3300 ± 700 µM
Ki (fluoride-resistant BChE [8]): 300 ± 320 µM

CC(C)(C)NC[C@@H](O)c1ccc(O)c(CO)c1 [(S)-salbutamol]
Ki (human AChE [1]; [9]): 1800 ± 100 µM
Ki (usual BChE [2]; [10]): 310 ± 50 µM
Ki (atypical BChE [3]; [10]): 1500 ± 200 µM
Ki (fluoride-resistant BChE [4]; enantiomers, pH 7.4, 25 °C): 300 ± 40 µM

CC(Cc1ccc(O)cc1)NCC(O)c1cc(O)cc(O)c1 (centres unmarked) [Fenoterol]
Ki (human AChE [1]): 860 ± 50 µM
Ki (usual BChE [2]): 24 ± 1 µM
Ki (atypical BChE [3]): 630 ± 30 µM
Ki (fluoride-resistant BChE [4]; [11]): 61 ± 17 µM

OCc1cc([C@H](O)CNCCCCCCOCCCCc2ccccc2)ccc1O [(S)-salmeterol]
Ki (human AChE [1]; [9]): 28 ± 6 µM
Ki (usual BChE [2]; [10]): 15 ± 1 µM
Ki (atypical BChE [3]; [10]): 67 ± 13 µM
Ki (fluoride-resistant BChE [4]; enantiomers, pH 7.4, 25 °C): 20 ± 3 µM

CC(C)NCC(O)c1cc(O)cc(O)c1 (centres unmarked) [Metaproterenol]
Ki (usual BChE [6]): 550 ± 110 µM
Ki (atypical BChE [7]): 6100 ± 700 µM
Ki (fluoride-resistant BChE [8]): 870 ± 180 µM

CCC(NC(C)C)C(O)c1ccc(O)c(O)c1 (centres unmarked) [Isoetharine]
higher inhibition potency (human AChE [1]; AChE, compared to isoproterenol): 12 fold
Ki (human AChE [1]; read-out: K(I)): 210 ± 40 µM
Ki (usual BChE [2]; read-out: K(I)): 31 ± 3 µM
inhibition potency higher than other compounds of the same group (usual BChE [2]): ≤ 120 times
Ki (atypical BChE [3]): 260 ± 50 µM
Ki (fluoride-resistant BChE [4]; [11]): 86 ± 4 µM

CC(C)(C)NC[C@H](O)c1cc(O)cc(O)c1 [(R)-terbutaline]
stereoselectivity: preference for (R) enantiomer over racemate (human AChE [1]; AChE, K(I) racemate versus (R) enantiomer): 2 fold
Ki (human AChE [1]; [9]): 2000 ± 300 µM
Ki (usual BChE [2]; [10]): 110 ± 30 µM
stereoselectivity: preference for (R) enantiomer over racemate (atypical BChE [3]; atypical BChE, K(I) racemate versus (R) enantiomer): 3 fold
Ki (atypical BChE [3]; [10]): 1000 ± 100 µM
Ki (fluoride-resistant BChE [4]; enantiomers, pH 7.4, 25 °C): 220 ± 50 µM

CC(C)NC[C@H](O)c1ccc(O)c(O)c1 [(R)-isoproterenol]
Ki (human AChE [1]; [9]): 2000 ± 500 µM
Ki (usual BChE [2]; [10]): 810 ± 130 µM
Ki (atypical BChE [3]; [10]): 1400 ± 100 µM
Ki (fluoride-resistant BChE [4]; enantiomers, pH 7.4, 25 °C): 1400 ± 200 µM

OCc1cc([C@@H](O)CNCCCCCCOCCCCc2ccccc2)ccc1O [(R)-salmeterol]
Ki (human AChE [1]; [9]): 33 ± 3 µM
Ki (usual BChE [2]; [10]): 15 ± 1 µM
Ki (atypical BChE [3]; [10]): 71 ± 19 µM
Ki (fluoride-resistant BChE [4]; enantiomers, pH 7.4, 25 °C): 31 ± 4 µM

CNC[C@H](O)c1ccc(O)c(O)c1 [Epinephrine]
Ki (human AChE [1]): 6400 ± 1100 µM
Ki (usual BChE [2]): 3700 ± 1200 µM
selectivity: inhibition of usual BChE more potent than AChE (ratio of K(I) constants) (usual BChE [2]): lowest selectivity
Ki (atypical BChE [3]; read-out: K(I)): 1600 ± 1000 µM
Ki (fluoride-resistant BChE [4]; [11]): 3800 ± 1500 µM

Source: paper PMC6445159, “Resorcinol-, catechol- and saligenin-based bronchodilating β2-agonists as inhibitors of human cholinesterase activity” (Journal of Enzyme Inhibition and Medicinal Chemistry, 2017)
